Reference: PubChem BioAssay AID493145 (Sanford-Burnham Center for Chemical Genomics, 2011)
Several values for one entry are separate records, joined by “and”; a condition that tells them apart may be missing. Equal entries are not always repeated. Activity calls are given as the source filed them. How the calls were made is not given here.

biological target: Intestinal-type alkaline phosphatase (Homo sapiens) (UniProt P09923); test: human IAP activators, SAR follow-up, mouse IAP activator project, biochemical, human enzyme for mouse series (AID 493145); details: purified human intestinal alkaline phosphatase, enzymatic activity
Sequence (P09923 whole entry, looked up): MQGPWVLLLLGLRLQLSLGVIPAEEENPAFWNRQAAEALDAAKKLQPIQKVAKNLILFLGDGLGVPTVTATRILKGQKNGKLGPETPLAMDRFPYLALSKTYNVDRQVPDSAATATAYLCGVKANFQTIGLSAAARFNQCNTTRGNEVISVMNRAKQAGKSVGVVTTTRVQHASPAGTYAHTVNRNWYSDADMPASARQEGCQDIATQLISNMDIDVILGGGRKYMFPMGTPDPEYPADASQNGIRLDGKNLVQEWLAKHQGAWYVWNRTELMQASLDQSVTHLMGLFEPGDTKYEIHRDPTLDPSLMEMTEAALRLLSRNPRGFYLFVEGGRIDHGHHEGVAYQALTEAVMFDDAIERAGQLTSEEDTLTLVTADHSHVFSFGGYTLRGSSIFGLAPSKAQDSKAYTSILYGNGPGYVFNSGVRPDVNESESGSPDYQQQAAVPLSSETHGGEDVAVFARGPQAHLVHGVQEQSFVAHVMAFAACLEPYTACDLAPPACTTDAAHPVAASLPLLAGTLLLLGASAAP

Structure (SMILES) | EC50
COc1ccc(NC(=O)CSc2sc3c(O)cc(=O)[nH]c3c2C#N)c(OC)c1 | > 100 µM (inactive)
Cc1ccc(NC(=O)CSc2sc3c(O)cc(=O)[nH]c3c2C#N)c(F)c1 | > 100 µM (inactive)
COC(=O)NNC(=O)c1cc(OC)c(OC)c(OC)c1 | > 100 µM (inactive)
O=C(NCCc1ccc(Cl)cc1)C1CCCN(S(=O)(=O)c2ccc3[nH]c(=O)oc3c2)C1 (configuration not stated) | > 100 µM (inactive)
Cc1ccc(/C=N/NC(=O)c2cc(O)c(O)c(O)c2)cc1 | > 100 µM (inactive)
CCOc1ccc2nc(NC(=O)CN(C)S(=O)(=O)c3ccc4[nH]c(=O)oc4c3)sc2c1 | > 100 µM (inactive)
O=[N+]([O-])c1ccc(NC(=S)NCCC(c2ccccc2)c2ccccc2)cc1 | > 100 µM (inactive)
CCOC(=O)N1CCC(NC(=O)CSc2sc3c(O)cc(=O)[nH]c3c2C#N)CC1 | > 100 µM (inactive)
COc1cc(Cl)c(C)cc1NC(=O)CSc1sc2c(O)cc(=O)[nH]c2c1C#N | > 100 µM (inactive)
O=C(N/N=C/C1CC2CCC1C2)c1cc(O)c(O)c(O)c1 (configuration not stated) | > 100 µM (inactive)
CN1CCC(=NNC(=O)c2cc(O)c(O)c(O)c2)CC1 | > 100 µM (inactive) and 64 µM
CCN(CC)C(=O)CSc1sc2c(O)cc(=O)[nH]c2c1C#N | > 100 µM (inactive)
COC(=O)c1ccc(C)c(NC(=O)CSc2sc3c(O)cc(=O)[nH]c3c2C#N)c1 | > 100 µM (inactive)
O=C(NN=Cc1cccnc1)c1cc(O)c(O)c(O)c1 | > 100 µM (inactive)
COc1cc(C(=O)NNC(=O)c2n[nH]c3ccccc23)cc(OC)c1OC | 24 µM
Cc1ccc(NC(=O)CCNS(=O)(=O)c2ccc3[nH]c(=O)oc3c2)cc1N(C)C | > 100 µM (inactive)
CCOc1ccccc1CNC(=O)CCNS(=O)(=O)c1ccc2[nH]c(=O)oc2c1 | > 100 µM (inactive)
Cc1cc(=O)oc2cc(NC(=S)NCCC(c3ccccc3)c3ccccc3)ccc12 | > 100 µM (inactive)
O=C(N/N=C/c1ccc(F)cc1)c1cc(O)c(O)c(O)c1 | > 100 µM (inactive)
COc1ccc(Cl)cc1NC(=O)CSc1sc2c(O)cc(=O)[nH]c2c1C#N | > 100 µM (inactive)
C/C(=N\NC(=O)c1cc(O)c(O)c(O)c1)c1ccncc1 | > 100 µM (inactive)
COc1cccc(CNC(=O)CCNS(=O)(=O)c2ccc3[nH]c(=O)oc3c2)c1 | > 100 µM (inactive)

The next lines start with the values.

EC50 | Structure (SMILES)
> 100 µM (inactive) | O=C(CN1C(=O)/C(=C/c2ccco2)SC1=S)Nc1ccc(C(=O)O)cc1
> 100 µM (inactive) | O=C(CCCN1C(=O)/C(=C/c2ccco2)SC1=S)Nc1ccccc1
> 100 µM (inactive) | CC(C(=O)Nc1ccccc1C(=O)O)N1C(=O)/C(=C\c2ccco2)SC1=S (configuration not stated)
> 100 µM (inactive) | O=C(CCN1C(=O)/C(=C/c2ccco2)SC1=S)Nc1ccc(O)cc1C(=O)O
> 100 µM (inactive) | CCOc1ccccc1NC(=O)CCNS(=O)(=O)c1ccc2[nH]c(=O)oc2c1
> 100 µM (inactive) | O=C(CN1C(=O)/C(=C/c2ccco2)SC1=S)Nc1ccc(O)c(C(=O)O)c1
> 100 µM (inactive) | N#Cc1c(SCC(=O)Nc2cccc(F)c2)sc2c(O)cc(=O)[nH]c12
> 100 µM (inactive) | CC(C)c1ccc(NC(=O)CCNS(=O)(=O)c2ccc3[nH]c(=O)oc3c2)cc1
> 100 µM (inactive) | COc1cccc(/C=N/NC(=O)c2cc(O)c(O)c(O)c2)c1
> 100 µM (inactive) | CC(C(=O)Nc1cccc(C(=O)O)c1)N1C(=O)/C(=C\c2ccco2)SC1=S (configuration not stated)
> 100 µM (inactive) | O=C(CN1C(=O)/C(=C\c2ccco2)SC1=S)Nc1ccc(O)cc1C(=O)O
> 100 µM (inactive) | O=C(CN1C(=O)/C(=C/c2ccco2)SC1=S)NCCc1ccc(O)cc1
> 100 µM (inactive) | CCOc1cccc(NC(=O)CSc2sc3c(O)cc(=O)[nH]c3c2C#N)c1
> 100 µM (inactive) | CC(C)C(C(=O)NC1CCS(=O)(=O)C1)N1C(=O)/C(=C\c2ccco2)SC1=S (configuration not stated)
> 100 µM (inactive) | O=C(c1ccco1)N1CCN(S(=O)(=O)c2ccc3[nH]c(=O)oc3c2)CC1
